Here are results for three molecules from patent US5808139A (Ligand Pharmaceuticals Incorporated, priority 1994, dated 1998).

The structures appear in SMILES notation. Entries after “also recorded” stand apart in the source; their conditions may differ.

The target in one assay is T1, glucocorticoid receptor (Homo sapiens, UniProt P04150).
T1 sequence (P04150 1-777): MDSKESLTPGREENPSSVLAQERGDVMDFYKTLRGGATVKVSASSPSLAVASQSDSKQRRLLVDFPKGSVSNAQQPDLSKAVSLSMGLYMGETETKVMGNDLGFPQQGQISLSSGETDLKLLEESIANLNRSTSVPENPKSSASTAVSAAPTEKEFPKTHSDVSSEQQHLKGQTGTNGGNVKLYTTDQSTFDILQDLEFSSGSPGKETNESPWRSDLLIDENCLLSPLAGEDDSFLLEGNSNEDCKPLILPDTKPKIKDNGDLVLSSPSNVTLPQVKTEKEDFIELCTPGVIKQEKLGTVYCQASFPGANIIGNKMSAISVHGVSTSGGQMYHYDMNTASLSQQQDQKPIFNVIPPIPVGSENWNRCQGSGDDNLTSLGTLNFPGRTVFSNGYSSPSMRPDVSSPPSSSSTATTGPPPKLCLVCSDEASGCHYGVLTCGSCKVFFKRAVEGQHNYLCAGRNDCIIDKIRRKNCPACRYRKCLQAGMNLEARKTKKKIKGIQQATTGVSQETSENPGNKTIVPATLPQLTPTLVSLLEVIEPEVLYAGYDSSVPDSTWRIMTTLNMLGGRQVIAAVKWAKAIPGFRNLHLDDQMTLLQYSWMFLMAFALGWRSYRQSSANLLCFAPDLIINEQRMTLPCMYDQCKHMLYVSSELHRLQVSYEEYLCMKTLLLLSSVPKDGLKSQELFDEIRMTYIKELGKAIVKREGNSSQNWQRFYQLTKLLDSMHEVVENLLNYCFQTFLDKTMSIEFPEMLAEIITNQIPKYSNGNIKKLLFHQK
The assay can be described thus: Cross-reactivity, glucocorticoid receptor activation (agonist and antagonist). It counts as cell-based. From the text: This assay is described in further detail in U.S. Pat. Nos. 4,981,784 and 5,071,773, which are incorporated herein by reference. The co-transfection assay provides a method for identifying functional ligands (either agonists which mimic, or antagonists which inhibit, the effect of hormones) for ligand-responsive receptor proteins.
The co-transfection assay provides a mechanism to evaluate ability of a compound to function as an agonist or antagonist of the activity modulated by an intracellular receptor. The co-transfection assay mimics an in vivo system in the laboratory. In the co-transfection assay, a cloned gene for an intracellular receptor is introduced by transfection (a procedure to induce cells to take up foreign genes) into a background cell substantially devoid of endogenous intracellular receptors. This introduced gene directs the recipient cells to make the intracellular receptor protein. A second gene is also introduced (co-transfected) into the same cells in conjunction with the intracellular receptor gene. This second gene functions as a reporter for the transcription-modulating activity of the target intracellular receptor. The reporter acts as a surrogate for the products normally expressed by a gene under control of the target receptor and its natural hormone.
A preferred reporter gene is one which expresses the firefly enzyme luciferase. The co-transfection assay can detect small molecule agonists or antagonists of target intracellular receptors. Exposing the cells to an agonist ligand increases reporter activity in the transfected cells that can be conveniently measured, reflecting ligand-dependent, intracellular receptor-mediated increases in reporter transcription. To detect antagonists, the co-transfection assay is carried out in the presence of a constant concentration of an agonist known to induce a defined reporter signal. […]
Co-transfected cells are exposed to a medium to which is added the potential ligand that is being evaluated. […] Antagonist activity is evaluated by adding the candidate ligand and a known agonist to the co-transfected cells. […]

For another assay, the system named is T47D cells. Briefly: Alkaline phosphatase activity in T47D cells (induction and its inhibition). It counts as cell-based, human. The conditions noted are these: for Agonist activity, alkaline phosphatase induction: ligand alone, three days. The text has this: The functional activities of the cyclocymopol analogues in the human breast cell line, T47D, were also investigated. T47D cells have proven to be a particularly useful model to investigate the molecular actions of sex steroids because they contain endogenous functional receptors for, and respond to, progestins, and their respective antagonists. Moreover, these cells contain exceptionally high titers of progesterone receptors and are exquisitely sensitive to the actions of progestins in a manner quite similar to their actions in normal and neoplastic mammary epithelial cells. In T47D cells, progestins induce de novo synthesis of a plasma-associated alkaline phosphatase, which has been reported to be similar, if not identical, to the alkaline phosphatase present in the normal breast and human milk. These tests were conducted according to the following illustrative example. […] For routine induction of alkaline phosphatase, cells were treated for three days with two media changes and harvested as described below. […] Nuclei were sedimented at 2500 rpm, and the supernatant was saved as cytosol. The protein content of the cytosol was assayed by the method of Bradford. Alkaline phosphatase activity was determined by incubating one volume of cell extract with three volumes of 1 mg/ml p-nitrophenol phosphate prepared in DEAM (1M diethanolamine, pH=9, containing 2 mM magnesium chloride) at room temperature for 20 min. At the end of the incubation time, the reaction was stopped with an equal volume of 1N NaOH. Ten standards of p-nitrophenol were prepared in DEAM buffer and absorbance was read at 405 nm. Alkaline phosphatase activity is expressed as pmol p-nitrophenol formed/min/mg protein.

Take `CC#C[C@]1(O)CC[C@H]2[C@@H]3CCC4=CC(=O)CCC4=C3[C@@H](c3ccc(N(C)C)cc3)C[C@@]21C` [RU-486, reference compound]: the “Agonist/antagonist activity with glucocorticoid receptor” value (“Agonist/antagonist activity” for short) on glucocorticoid receptor is given as “significant activity”. Moreover, the “Inhibition of alkaline phosphatase induced by SO-54 and SO-51” value with T47D cells (induction by SO-54 or SO-51, FIG. 11) is “blocked”.

As to `C=C1CC[C@@H](Br)C(C)(C)[C@@H]1Cc1cc(OC)c(Br)cc1OC(C)=O` [SO-52], the “Agonist/antagonist activity” value at glucocorticoid receptor is recorded as “slight agonist activity”. In addition, in the assay on T47D cells, the “Agonist activity, alkaline phosphatase induction” value is given as “very weak agonists”.

Consider `C=C1CC[C@@H](Br)C(C)(C)[C@@H]1Cc1cc(OC)c(Br)cc1O` [SO-53, (3R)-cyclocymopol monomethyl ether], for which the “Agonist/antagonist activity” value on glucocorticoid receptor is reported as “neither agonist nor antagonist activity”. The “Inhibition of progesterone-stimulated alkaline phosphatase activity” value in the assay with T47D cells (1.0 nM progesterone) was “attenuated this induction in a concentration-dependent manner; also recorded: attenuated the effects of progesterone in a concentration-dependant manner”. Moreover, the “Inhibition of R5020-induced alkaline phosphatase activity” value in the assay on T47D cells (R5020-induced) was “effective antagonist of the progesterone mimic”. The “Agonist activity, alkaline phosphatase induction” value with T47D cells is “very weak agonists”.
